The numbers were not newly measured in patent US8921361B2, “Triazine, pyrimidine and pyridine analogs and their use as therapeutic agents and diagnostic probes” (University of Basel, priority 2008, dated 2014), which cites them from elsewhere.

The subject of the data set is human cancer xenografts.

As for `FC(F)c1nc2ccccc2n1-c1nc(N2CCOCC2)nc(N2CCOCC2)n1` [ZSTK474], where the note is “mouse, in vivo, po”, the “toxicity in xenograft mice” value is on record as “without evidence of critical toxicity”. The “antitumor activity against human cancer xenografts in mice” value (orally administered, Yaguchi et al. 2006) is listed as “potent antitumor activity”.
